Data from US20260297542A1, “HERBICIDE RESISTANT PLANTS” (SYNGENTA CROP PROTECTION AG, priority 2023, published 2026).
“And” between values parts separate entries of the source, which are not always exact repeats. Equal values may be shown once.

Tests used:
Wildtype Samsun tobacco = experiment: herbicide damage to wild-type tobacco; format: in vivo; conditions: 120 g ai/ha, 0 no visible damage, 100 complete death
From the text: (§1) Herbicidal damage is visually assessed across the population and a herbicide damage score given at 7 and 14 days. A score of 0 indicates no visible damage or stunting whereas a score of 100 indicates a complete death of the plant. 20 transgenic events (i.e. individual transgenic plants) from each GM tobacco line are transplanted to soil 1 week prior to spraying with PPO inhibiting compounds. WT tobacco is included as a control.
as §1, with “damage was” for “damage is”, “line were” for “line are”
The wild-type Samsun plants show significant damage at the day 7 and 14 assessment time.

AtPPO1 V127L = target: T1, AtPPO1 V127L (Arabidopsis thaliana, UniProt P55826, V127L); experiment: E. coli hemG growth inhibition by herbicide, AtPPO1 variant; format: cell-based; conditions: read-out: percentage growth inhibition
T1 construct: expressed in transfected cells; host or cells: E. coli BL21(DE3) hemG (hemG replaced by CmR), pET24a plasmid
T1 sequence (P55826 35-537 V127L): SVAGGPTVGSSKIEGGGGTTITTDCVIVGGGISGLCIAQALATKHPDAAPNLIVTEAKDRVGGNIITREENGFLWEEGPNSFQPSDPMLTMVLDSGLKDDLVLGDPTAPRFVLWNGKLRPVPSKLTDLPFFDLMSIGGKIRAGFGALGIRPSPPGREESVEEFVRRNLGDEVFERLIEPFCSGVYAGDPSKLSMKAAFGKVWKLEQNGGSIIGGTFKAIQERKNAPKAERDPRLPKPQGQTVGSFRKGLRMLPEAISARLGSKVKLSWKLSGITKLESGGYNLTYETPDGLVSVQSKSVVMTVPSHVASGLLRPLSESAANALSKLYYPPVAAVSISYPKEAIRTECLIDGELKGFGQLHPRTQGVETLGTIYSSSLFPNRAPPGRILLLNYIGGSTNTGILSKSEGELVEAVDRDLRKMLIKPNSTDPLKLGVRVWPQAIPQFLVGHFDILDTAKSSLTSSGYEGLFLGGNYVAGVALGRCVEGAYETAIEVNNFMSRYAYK
Method in brief: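 Variant plasmids were transformed into hemG-null BL21(DE3) and precultured 24 h with hematin. Washed cells were diluted 1:100 into Terrific broth containing 0.1 mM IPTG and herbicide (6.25 ppm 0 or E; 0.78 ppm B) or DMSO. After 24 h at 37° C, OD600 gave percent inhibition.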

Compound	percentage of damage (Wildtype Samsun tobacco; 7 DAT)	percentage of damage (Wildtype Samsun tobacco; 14 DAT) [%]	inhibition at 6.25 ppm (AtPPO1 V127L) [%]	inhibition at 0.78 ppm (AtPPO1 V127L) [%]
CCOC(=O)[C@]1(C)CC(c2cc(-n3c(=O)n(C)c(=S)n(C)c3=O)c(F)cc2Cl)=NO1 [Herbicide D, ethyl (5S)-3-[2-chloro-5-(3,5-dimethyl-2,6-dioxo-4-thioxo-1,3,5-triazinan-1-yl)-4-fluoro-phenyl]-5-methyl-4H-isoxazole-5-carboxylate]	98% and 100%	100	29	–
CCOC(=O)C1(C)CC(c2cc(-n3c(=O)cc(C(F)(F)F)n(C)c3=O)c(F)cc2Cl)=NO1 (stereo not drawn) [Herbicide C, 3-(2-chloro-4-fluoro-5-(3-methyl-2,6-dioxo-4-trifluoromethyl-3,6-dihydropyrimidin-1(2H)-yl)phenyl)-5-methyl-4,5-dihydroisoxazole-5-carboxylic acid ethyl ester]	100%	100	–	–
C#CCN1C(=O)C(F)(F)Oc2cc(F)c(-n3c(=O)n(C)c(=S)n(C)c3=O)cc21 [Herbicide B, trifludimoxazin]	100%	100	–	31
CC(C)N(C)S(=O)(=O)NC(=O)c1cc(-n2c(=O)cc(C(F)(F)F)n(C)c2=O)c(F)cc1Cl [Herbicide E, saflufenacil]	–	–	65	–
